Source: US6355799B1, “Substituted benzene compounds, process for their preparation, and herbicidal and defoliant compositions containing them” (ISK Americas Incorporated, priority 1997, dated 2002)

What was measured:
Format in all cases: in vivo
[1] = test system: large crabgrass (Digitaria sanguinalis, DIGSA); test: Pre-emerge test, greenhouse herbicide activity screening; settings: pre-emerge, 14 days after application, rating scale 0-100
Text: (§1) A standard greenhouse herbicide activity screening system was used to evaluate the herbicidal efficacy and crop safety of these test compounds. Seven broadleaf weed species including redroot pigweed (Amaranthus retroflexus, AMARE, velvetleaf (Abutilon theophrasti, ABUTH), sicklepod (Cassia obtusifolia, CASOB), ivyleaf morningglory (Ipomoea hederacea, IPOHE), lambsquarters (Chenopodium album, CHEAL), common ragweed (Ambrosia artemisizfolia L., AMBEL), and cocklebur (Xanthium strumarium, XANST) were used as test species. Four grass weed species including green foxtail (Setaria viridis, SETVI), barnyardgrass (Echinochloa crus-galli, ECHCG), johnsongrass (Sorghum halepense, SORHA), and large crabgrass (Digitaria sanguinalis, DIGSA) were also used. In addition, three crop species, field corn (Zea mays L., var. Dekalb 535, CORN), soybean (Glycine max L., var. Pella 86, SOY), and is upland rice (Oryza sp., var. Tebonnet, RICE) were included.
(§2) All plants were grown in 10 cm square plastic pots which were filled with a sandy loam soil mix. For pre-emerge tests, seeds were planted one day prior to application of the test compounds. For post-emerge tests, seeds were planted 8-21 days prior to the test to allow emergence and good foliage development prior to application of the test substances. At the time of the post-emerge application, plants of all species were usually at the 2-3 leaf stage of development.
(§3) All test compounds Were dissolved in acetone and applied to the test units in a volume of 187 l /ha. Test materials were applied at rates ranging from 15 g ai/ha to 1000 g ai/ha using a track sprayer equipped with a TJ8001E even flow flat fan spray nozzle. Plants were arranged on a shelf so that the top of the canopy (post-emerge) or top of the soil surface (pre-emerge) was 40-45 cm below the nozzle. Pressurized air was used to force the test solution through the nozzle as it was mechanically advanced (via electrically driven chain drive) over the top of all test plants/pots. This application simulates a typical commercial field herbicide application.
(§4) In the post-emerge test, a commercial non-ionic surfactant was also included (0.25% v/v) to enhance wetting of the leaf surfaces of target plants. Immediately after application, test units of the pre-emerge applications were watered at the soil surface to incorporate the test materials. Subsequently, these test units were bottom-watered. Post-emerge test units were always bottom-watered.
(§5) At 14 days after application of the test materials, phytotoxicity ratings were recorded. A rating scale of 0-100 was used as previously described in Research Methods in Weed Science, 2nd edition, B. Truelove, Ed., Southern Weed Science Society, Auburn University, Auburn, Ala. 1977. Briefly, “0” corresponds to no damage and “100” corresponds to complete death of all plants in the test unit. This scale was used both to determine efficacy against weed species and damage to crop species. Herbicide activity data for various compounds of this invention, which are shown by compound No. in Tables 1-8, are shown in Tables 11 and 12.

[2] = test system: sicklepod (Cassia obtusifolia, CASOB); test: as above; settings: pre-emerge, 14 days after application, rating scale 0-100
Text: as §1, §2, §3, §4, §5

[3] = test system: lambsquarters (Chenopodium album, CHEAL); test: as above; settings: pre-emerge, 14 days after application, rating scale 0-100
Text: as §1, §2, §3, §4, §5

[4] = test system: barnyardgrass (Echinochloa crus-galli, ECHCG); test: as above; settings: pre-emerge, 14 days after application, rating scale 0-100
Text: as §1, §2, §3, §4, §5

[5] = test system: ivyleaf morningglory (Ipomoea hederacea, IPOHE); test: as above; settings: pre-emerge, 14 days after application, rating scale 0-100
Text: as §1, §2, §3, §4, §5

[6] = test system: green foxtail (Setaria viridis, SETVI); test: as above; settings: pre-emerge, 14 days after application, rating scale 0-100
Text: as §1, §2, §3, §4, §5

[7] = test system: velvetleaf (Abutilon theophrasti, ABUTH); test: as above; settings: pre-emerge, 14 days after application, rating scale 0-100
Text: as §1, §2, §3, §4, §5

[8] = test system: redroot pigweed (Amaranthus retroflexus, AMARE); test: Post-emerge test, greenhouse herbicide activity screening; settings: post-emerge, 14 days after application
Text: as §1, §2, §3, §4, §5

[9] = test system: large crabgrass (Digitaria sanguinalis, DIGSA); test: as above; settings: post-emerge, 14 days after application, rating scale 0-100
Text: as §1, §2, §3, §4, §5

[10] = test system: sicklepod (Cassia obtusifolia, CASOB); test: as above; settings: post-emerge, 14 days after application, rating scale 0-100
Text: as §1, §2, §3, §4, §5

[11] = test system: lambsquarters (Chenopodium album, CHEAL); test: as above; settings: post-emerge, 14 days after application, rating scale 0-100
Text: as §1, §2, §3, §4, §5

[12] = test system: barnyardgrass (Echinochloa crus-galli, ECHCG); test: as above; settings: post-emerge, 14 days after application, rating scale 0-100
Text: as §1, §2, §3, §4, §5

[13] = test system: ivyleaf morningglory (Ipomoea hederacea, IPOHE); test: as above; settings: post-emerge, 14 days after application, rating scale 0-100
Text: as §1, §2, §3, §4, §5

[14] = test system: green foxtail (Setaria viridis, SETVI); test: as above; settings: post-emerge, 14 days after application, rating scale 0-100
Text: as §1, §2, §3, §4, §5

[15] = test system: velvetleaf (Abutilon theophrasti, ABUTH); test: as above; settings: post-emerge, 14 days after application, rating scale 0-100
Text: as §1, §2, §3, §4, §5

[16] = test system: redroot pigweed (Amaranthus retroflexus, AMARE); test: Pre-emerge test, greenhouse herbicide activity screening; settings: pre-emerge, 14 days after application, rating scale 0-100
Text: as §1, §2
as §3, with “Test materials were applied at rates ranging from 15 g ai/ha to 1000 g ai/ha using a track sprayer equipped with a TJ8001E even flow flat fan spray nozzle.” left out
as §4, §5

Question: Which “phytotoxicity rating DIGSA” value ([1]; 63 g ai/ha) does the source give for `COc1c(Cl)cc(F)c(-n2c(=O)cc(C(F)(F)F)n(C)c2=O)c1NN` [Compound 15-1, 3-[4-chloro-2-diazanyl-6-fluoro-3-methoxyphenyl]-1-methyl-6-trifluoromethyl-2,4(1H, 3H)-pyrimidinedione] here?
Answer: Its value is 100.

Question: And the “phytotoxicity rating DIGSA” value ([1]; 250 g ai/ha)?
Answer: The value was 100.

Question: What about the “phytotoxicity rating CASOB” value ([2]; 63 g ai/ha) of the same molecule?
Answer: Its value is 100.

Question: What about the “phytotoxicity rating CASOB” value ([2]; 250 g ai/ha) of the same molecule?
Answer: The value was 100.

Question: What about the “phytotoxicity rating CHEAL” value ([3]; 63 g ai/ha) of the same molecule?
Answer: The value was 100.

Question: What about the “phytotoxicity rating CHEAL” value ([3]; 250 g ai/ha) of the same molecule?
Answer: Its value is 100.

Question: What about the “phytotoxicity rating ECHCG” value ([4]; 63 g ai/ha) of the same molecule?
Answer: The value was 91.

Question: What about the “phytotoxicity rating ECHCG” value ([4]; 250 g ai/ha) of the same molecule?
Answer: Its value is 100.

Question: What about the “phytotoxicity rating IPOHE” value ([5]; 63 g ai/ha) of the same molecule?
Answer: Its value is 100.

Question: And the “phytotoxicity rating IPOHE” value ([5]; 250 g ai/ha)?
Answer: The value was 100.

Question: What about the “phytotoxicity rating SETVI” value ([6]; 63 g ai/ha) of the same molecule?
Answer: The value was 100.

Question: What about the “phytotoxicity rating SETVI” value ([6]; 250 g ai/ha) of the same molecule?
Answer: Its value is 100.

Question: And the “phytotoxicity rating ABUTH” value ([7]; 63 g ai/ha)?
Answer: Its value is 100.

Question: And the “phytotoxicity rating ABUTH” value ([7]; 250 g ai/ha)?
Answer: Its value is 100.

Question: And the “Post-emerge Herbicidal Activity AMARE (phytotoxicity rating)” value ([8]; 63 g ai/ha, rating scale 0-100 (0 no damage, 100 complete death))?
Answer: The value was 100.

Question: What about the “Post-emerge Herbicidal Activity AMARE (phytotoxicity rating)” value ([8]; 250 g ai/ha, rating scale 0-100) of the same molecule?
Answer: The value was 100.

Question: And the “Post-emerge Herbicidal Activity DIGSA (phytotoxicity rating)” value ([9]; 63 g ai/ha)?
Answer: The value was 90.

Question: And the “Post-emerge Herbicidal Activity DIGSA (phytotoxicity rating)” value ([9]; 250 g ai/ha)?
Answer: The value was 100.

Question: And the “Post-emerge Herbicidal Activity CASOB (phytotoxicity rating)” value ([10]; 63 g ai/ha)?
Answer: The value was 100.

Question: What about the “Post-emerge Herbicidal Activity CASOB (phytotoxicity rating)” value ([10]; 250 g ai/ha) of the same molecule?
Answer: Its value is 100.

Question: What about the “Post-emerge Herbicidal Activity CHEAL (phytotoxicity rating)” value ([11]; 63 g ai/ha) of the same molecule?
Answer: Its value is 100.

Question: And the “Post-emerge Herbicidal Activity CHEAL (phytotoxicity rating)” value ([11]; 250 g ai/ha)?
Answer: Its value is 100.

Question: And the “Post-emerge Herbicidal Activity ECHCG (phytotoxicity rating)” value ([12]; 63 g ai/ha)?
Answer: The value was 80.

Question: And the “Post-emerge Herbicidal Activity ECHCG (phytotoxicity rating)” value ([12]; 250 g ai/ha)?
Answer: The value was 99.

Question: And the “Post-emerge Herbicidal Activity IPOHE (phytotoxicity rating)” value ([13]; 63 g ai/ha)?
Answer: Its value is 100.

Question: What about the “Post-emerge Herbicidal Activity IPOHE (phytotoxicity rating)” value ([13]; 250 g ai/ha) of the same molecule?
Answer: The value was 100.

Question: What about the “Post-emerge Herbicidal Activity SETVI (phytotoxicity rating)” value ([14]; 63 g ai/ha) of the same molecule?
Answer: Its value is 80.

Question: And the “Post-emerge Herbicidal Activity SETVI (phytotoxicity rating)” value ([14]; 250 g ai/ha)?
Answer: The value was 100.

Question: What about the “Post-emerge Herbicidal Activity ABUTH (phytotoxicity rating)” value ([15]; 63 g ai/ha) of the same molecule?
Answer: The value was 100.

Question: And the “Post-emerge Herbicidal Activity ABUTH (phytotoxicity rating)” value ([15]; 250 g ai/ha)?
Answer: The value was 100.

Question: And the “phytotoxicity rating AMARE” value ([16]; 63 g ai/ha)?
Answer: Its value is 100.

Question: What about the “phytotoxicity rating AMARE” value ([16]; 250 g ai/ha) of the same molecule?
Answer: The value was 100.
